Data from ChEMBL document CHEMBL1201861, “Genomics of Drug Sensitity in Cancer screening data, Wellcome Trust Sanger Institute”.

What was measured:
Assay in all cases: cells
CW-2 = type: functional, cell-based, Homo sapiens; settings: Homo sapiens, CW-2
Description: SANGER: Inhibition of human CW-2 cell growth in a cell viability assay.

D-502MG = type: functional, cell-based, Homo sapiens; settings: Homo sapiens, D-502MG
Description: SANGER: Inhibition of human D-502MG cell growth in a cell viability assay.

DMS-114 = type: functional, cell-based, Homo sapiens; settings: Homo sapiens, DMS-114
EM-2 = type: functional, cell-based; settings: Homo sapiens
Description: SANGER: Inhibition of human EM-2 cell growth in a cell viability assay.

ES3 = type: functional, cell-based, Homo sapiens; settings: Homo sapiens, ES3
Description: SANGER: Inhibition of human ES3 cell growth in a cell viability assay.

FaDu = type: functional, cell-based, Homo sapiens; settings: Homo sapiens, FaDu
Description: SANGER: Inhibition of human FADU cell growth in a cell viability assay.

G-402 = type: functional, cell-based, Homo sapiens; settings: Homo sapiens, G-402
Description: SANGER: Inhibition of human G-402 cell growth in a cell viability assay.

HCC1954 = type: functional, cell-based, Homo sapiens; settings: Homo sapiens, HCC1954
Description: SANGER: Inhibition of human HCC1954 cell growth in a cell viability assay.

HH = type: functional, cell-based; settings: Homo sapiens
Description: SANGER: Inhibition of human HH cell growth in a cell viability assay.

HuTu80 = type: functional, cell-based, Homo sapiens, HUTU-80; settings: Homo sapiens, HuTu80
Description: SANGER: Inhibition of human HUTU-80 cell growth in a cell viability assay.

JEG-3 = type: functional, cell-based, Homo sapiens; settings: Homo sapiens, JEG-3
Description: SANGER: Inhibition of human JEG-3 cell growth in a cell viability assay.

LB831-BLC = type: functional, cell-based, Homo sapiens; settings: Homo sapiens, LB831-BLC
Description: SANGER: Inhibition of human LB831-BLC cell growth in a cell viability assay.

LS-1034 = type: functional, cell-based, Homo sapiens; settings: Homo sapiens, LS-1034
Description: SANGER: Inhibition of human LS-1034 cell growth in a cell viability assay.

M14 = type: functional, cell-based, Homo sapiens; settings: Homo sapiens, M14
Description: SANGER: Inhibition of human M14 cell growth in a cell viability assay.

MDA-MB-175-VII = type: functional, cell-based, Homo sapiens; settings: Homo sapiens, MDA-MB-175-VII
MLMA = type: functional, cell-based, Homo sapiens; settings: Homo sapiens, MLMA
Description: SANGER: Inhibition of human MLMA cell growth in a cell viability assay.

MMAC-SF = type: functional, cell-based, Homo sapiens; settings: Homo sapiens, MMAC-SF
Description: SANGER: Inhibition of human MMAC-SF cell growth in a cell viability assay.

MV4-11 = type: functional, cell-based, MV-4-11; settings: Homo sapiens
Description: SANGER: Inhibition of human MV-4-11 cell growth in a cell viability assay.

Mo = type: functional, cell-based; settings: Homo sapiens
Description: SANGER: Inhibition of human Mo-T cell growth in a cell viability assay.

NB10 = type: functional, cell-based, Homo sapiens; settings: Homo sapiens, NB10
Description: SANGER: Inhibition of human NB10 cell growth in a cell viability assay.

NB13 = type: functional, cell-based, Homo sapiens; settings: Homo sapiens, NB13
Description: SANGER: Inhibition of human NB13 cell growth in a cell viability assay.

NCI-H1092 = type: functional, cell-based; settings: Homo sapiens
Description: SANGER: Inhibition of human NCI-H1092 cell growth in a cell viability assay.

NCI-H1155 = type: functional, cell-based; settings: Homo sapiens
Description: SANGER: Inhibition of human NCI-H1155 cell growth in a cell viability assay.

NCI-H1437 = type: functional, cell-based, Homo sapiens; settings: Homo sapiens, NCI-H1437
Description: SANGER: Inhibition of human NCI-H1437 cell growth in a cell viability assay.

NCI-H1581 = type: functional, cell-based, Homo sapiens; settings: Homo sapiens, NCI-H1581
Description: SANGER: Inhibition of human NCI-H1581 cell growth in a cell viability assay.

NCI-H2170 = type: functional, cell-based, Homo sapiens; settings: Homo sapiens, NCI-H2170
Description: SANGER: Inhibition of human NCI-H2170 cell growth in a cell viability assay.

SNU1 = type: functional, cell-based; settings: Homo sapiens
Description: SANGER: Inhibition of human NCI-SNU-1 cell growth in a cell viability assay.

NEC8 = type: functional, cell-based, Homo sapiens; settings: Homo sapiens, NEC8
Description: SANGER: Inhibition of human NEC8 cell growth in a cell viability assay.

OE19 = type: functional, cell-based, Homo sapiens; settings: Homo sapiens, OE19
Description: SANGER: Inhibition of human OE19 cell growth in a cell viability assay.

P30-OHK = type: functional, cell-based; settings: Homo sapiens
Description: SANGER: Inhibition of human P30-OHK cell growth in a cell viability assay.

PANC-03-27 = type: functional, cell-based, Homo sapiens; settings: Homo sapiens, PANC-03-27
Description: SANGER: Inhibition of human PANC-03-27 cell growth in a cell viability assay.

RCM-1 = type: functional, cell-based, Homo sapiens; settings: Homo sapiens, RCM-1
Description: SANGER: Inhibition of human RCM-1 cell growth in a cell viability assay.

Ramos-2G6-4C10 = type: functional, cell-based; settings: Homo sapiens
Description: SANGER: Inhibition of human Ramos-2G6-4C10 cell growth in a cell viability assay.

SCC-4 = type: functional, cell-based, Homo sapiens; settings: Homo sapiens, SCC-4
Description: SANGER: Inhibition of human SCC-4 cell growth in a cell viability assay.

SW1463 = type: functional, cell-based, Homo sapiens; settings: Homo sapiens, SW1463
Description: SANGER: Inhibition of human SW1463 cell growth in a cell viability assay.

SW-620 = type: functional, cell-based, Homo sapiens; settings: Homo sapiens, SW-620
Description: SANGER: Inhibition of human SW620 cell growth in a cell viability assay.

CWR22R = type: functional, cell-based, Homo sapiens; settings: Homo sapiens, 22Rv1
Description: SANGER: Inhibition of human 22RV1 cell growth in a cell viability assay.

697 = type: functional, cell-based; settings: Homo sapiens
Description: SANGER: Inhibition of human 697 cell growth in a cell viability assay.

8-MG-BA = type: functional, cell-based, Homo sapiens; settings: Homo sapiens, 8-MG-BA
Description: SANGER: Inhibition of human 8-MG-BA cell growth in a cell viability assay.

AM-38 = type: functional, cell-based, Homo sapiens; settings: Homo sapiens, AM-38
Description: SANGER: Inhibition of human AM-38 cell growth in a cell viability assay.

BE-13 = type: functional, cell-based; settings: Homo sapiens
Description: SANGER: Inhibition of human BE-13 cell growth in a cell viability assay.

BHY = type: functional, cell-based, Homo sapiens; settings: Homo sapiens, BHY
Description: SANGER: Inhibition of human BHY cell growth in a cell viability assay.

BT-474 = type: functional, cell-based, Homo sapiens; settings: Homo sapiens, BT-474
Description: SANGER: Inhibition of human BT-474 cell growth in a cell viability assay.

BXPC-3 = type: functional, cell-based, Homo sapiens; settings: Homo sapiens, BXPC-3
Description: SANGER: Inhibition of human BxPC-3 cell growth in a cell viability assay.

C2BBe1 = type: functional, cell-based, Homo sapiens; settings: Homo sapiens, C2BBe1
Description: SANGER: Inhibition of human C2BBe1 cell growth in a cell viability assay.

U-87 MG = type: functional, cell-based, U-87MG ATCC; settings: Homo sapiens
Description: SANGER: Inhibition of human U-87-MG cell growth in a cell viability assay.

U-251 = type: functional, cell-based, Homo sapiens; settings: Homo sapiens, U-251
Description: SANGER: Inhibition of human U251 cell growth in a cell viability assay.

UMC-11 = type: functional, cell-based, Homo sapiens; settings: Homo sapiens, UMC-11
Description: SANGER: Inhibition of human UMC-11 cell growth in a cell viability assay.

COLO-684 = type: functional, cell-based; settings: Homo sapiens
Description: SANGER: Inhibition of human COLO-684 cell growth in a cell viability assay.

EW-3 = type: functional, cell-based; settings: Homo sapiens
Description: SANGER: Inhibition of human EW-3 cell growth in a cell viability assay.

KY821 = type: functional, cell-based; settings: Homo sapiens
Description: SANGER: Inhibition of human KY821 cell growth in a cell viability assay.

NCI-H209 = type: functional, cell-based; settings: Homo sapiens
Description: SANGER: Inhibition of human NCI-H209 cell growth in a cell viability assay.

## O=c1cc(-c2cccc3c2Sc2ccccc2S3)oc(N2CCOCC2)c1 [KU-55933]
CW-2
  IC50: > 10 µM
D-502MG
  IC50: > 10 µM
DMS-114
  IC50: > 10 µM
EM-2
  IC50: > 10 µM
ES3
  IC50: > 10 µM
FaDu
  IC50: > 10 µM
G-402
  IC50: > 10 µM
HCC1954
  IC50: > 10 µM
HH
  IC50: 8.28 µM
HuTu80
  IC50: > 10 µM
JEG-3
  IC50: > 10 µM
LB831-BLC
  IC50: > 10 µM
LS-1034
  IC50: > 10 µM
M14
  IC50: > 10 µM
MDA-MB-175-VII
  IC50: > 10 µM
MLMA
  IC50: > 10 µM
MMAC-SF
  IC50: > 10 µM
MV4-11
  IC50: > 10 µM
Mo
  IC50: > 10 µM
NB10
  IC50: > 10 µM
NB13
  IC50: > 10 µM
NCI-H1092
  IC50: > 10 µM
NCI-H1155
  IC50: > 10 µM
NCI-H1437
  IC50: 9.81 µM
NCI-H1581
  IC50: > 10 µM
NCI-H2170
  IC50: > 10 µM
SNU1
  IC50: > 10 µM
NEC8
  IC50: > 10 µM
OE19
  IC50: > 10 µM
P30-OHK
  IC50: > 10 µM
PANC-03-27
  IC50: > 10 µM
RCM-1
  IC50: > 10 µM
Ramos-2G6-4C10
  IC50: > 10 µM
SCC-4
  IC50: > 10 µM
SW1463
  IC50: > 10 µM
SW-620
  IC50: > 10 µM
CWR22R
  IC50: > 10 µM
697
  IC50: > 10 µM
8-MG-BA
  IC50: > 10 µM
AM-38
  IC50: > 10 µM
BE-13
  IC50: > 10 µM
BHY
  IC50: > 10 µM
BT-474
  IC50: > 10 µM
BXPC-3
  IC50: > 10 µM
C2BBe1
  IC50: > 10 µM
U-87 MG
  IC50: > 10 µM
U-251
  IC50: > 10 µM
UMC-11
  IC50: > 10 µM
COLO-684
  IC50: > 10 µM

## COc1ccc(C2=N[C@@H](c3ccc(Cl)cc3)[C@@H](c3ccc(Cl)cc3)N2C(=O)N2CCNC(=O)C2)c(OC(C)C)c1 [NUTLIN-3]
CW-2
  IC50: > 8 µM
D-502MG
  IC50: 2.97 µM
DMS-114
  IC50: > 8 µM
EM-2
  IC50: > 8 µM
ES3
  IC50: > 8 µM
EW-3
  IC50: > 8 µM
FaDu
  IC50: > 8 µM
G-402
  IC50: 3.81 µM
HCC1954
  IC50: > 8 µM
HH
  IC50: > 8 µM
JEG-3
  IC50: > 8 µM
KY821
  IC50: > 8 µM
LB831-BLC
  IC50: > 8 µM
LS-1034
  IC50: > 8 µM
M14
  IC50: > 8 µM
MDA-MB-175-VII
  IC50: > 8 µM
MLMA
  IC50: > 8 µM
MMAC-SF
  IC50: > 8 µM
MV4-11
  IC50: 0.612 µM
Mo
  IC50: > 8 µM
NB10
  IC50: 3.21 µM
NB13
  IC50: > 8 µM
NCI-H1092
  IC50: > 8 µM
NCI-H1155
  IC50: > 8 µM
NCI-H1437
  IC50: > 8 µM
NCI-H1581
  IC50: > 8 µM
NCI-H209
  IC50: > 8 µM
NCI-H2170
  IC50: > 8 µM
SNU1
  IC50: 3.28 µM
NEC8
  IC50: 1.22 µM
OE19
  IC50: > 8 µM
P30-OHK
  IC50: > 8 µM
PANC-03-27
  IC50: > 8 µM
RCM-1
  IC50: > 8 µM
Ramos-2G6-4C10
  IC50: > 8 µM
SCC-4
  IC50: > 8 µM
SW1463
  IC50: > 8 µM
SW-620
  IC50: > 8 µM
CWR22R
  IC50: > 8 µM
697
  IC50: 5.45 µM
8-MG-BA
  IC50: > 8 µM
AM-38
  IC50: 6.76 µM
BE-13
  IC50: > 8 µM
BHY
  IC50: > 8 µM
BT-474
  IC50: > 8 µM
BXPC-3
  IC50: > 8 µM
C2BBe1
  IC50: 3.17 µM
U-87 MG
  IC50: > 8 µM
U-251
  IC50: > 8 µM
UMC-11
  IC50: > 8 µM
COLO-684
  IC50: > 8 µM
